Legend:
[1] = test system: telomerase (total cell lysates of lung cancer cell line H1299); experiment: Telomeric repeat amplification protocol (TRAP) telomerase activity analysis; format: biochemical; settings: 100 μM of compound; telomerase source H1299 cell lysate; gel electrophoresis, SYBER Green staining
Experimental: Telomerase elongated product (CX primer: [NT]) was replicated by PCR. […] Three different concentrations of compounds were performed.

Row | Structure (SMILES) | melting point | telomerase inhibition activity (TRAP analysis, FIG. 5) [1]
1 | O=C(CCl)Nc1ccc2c(c1)C(=O)c1ccc(NC(=O)CCl)cc1C2=O | 323 to 324 °C | –
2 | COC(=O)CNCCC(=O)Nc1ccc(NC(=O)CCNCC(=O)OC)c2c1C(=O)c1ccccc1C2=O [Compound 10] | 155 to 156 °C | have telomerase inhibition activity
3 | O=C(CCl)Nc1cccc2c1C(=O)c1cccc(NC(=O)CCl)c1C2=O [Compound 11, 1,5-Bis(chloroacetamido)anthraquinone] | 349 to 350 °C | –
4 | COC(=O)CNCCC(=O)Nc1cccc2c1C(=O)c1cccc(NC(=O)CCNCC(=O)OC)c1C2=O [Compound 21] | 150 to 151 °C | have telomerase inhibition activity
